The results in this text go back to US8637496B2, “Compounds having a monogalactosyldiacylglycerol synthase inhibitory activity as herbicide or algaecide, herbicide and algaecide compositions” (Commissariat a l'Energie Atomique, priority 2007, dated 2014).

Structures can show the parent of a compound that is named as a salt.

For the assay, the target named is T1, MGDG synthase in isolated spinach chloroplast envelope membranes (Spinacia oleracea, UniProt Q9SM44).
T1 construct: envelope membranes purified from the lysate by sucrose centrifugation gradient; from tissue; host or cells: envelope membranes of chloroplasts from spinach leaves
T1 sequence (Q9SM44 99-522): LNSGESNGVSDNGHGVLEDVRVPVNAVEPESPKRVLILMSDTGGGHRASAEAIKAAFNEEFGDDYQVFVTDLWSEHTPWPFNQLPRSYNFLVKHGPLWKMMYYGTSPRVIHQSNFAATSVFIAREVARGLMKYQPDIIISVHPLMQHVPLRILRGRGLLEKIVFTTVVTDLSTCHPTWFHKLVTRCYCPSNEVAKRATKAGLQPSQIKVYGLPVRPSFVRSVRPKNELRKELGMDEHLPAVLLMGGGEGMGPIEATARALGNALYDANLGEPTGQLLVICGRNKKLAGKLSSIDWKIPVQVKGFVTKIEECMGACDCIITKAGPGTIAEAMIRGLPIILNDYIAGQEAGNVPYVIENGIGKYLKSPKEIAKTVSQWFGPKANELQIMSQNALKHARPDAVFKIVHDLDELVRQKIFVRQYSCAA
Description: MGDG synthase activity in envelope membrane fractions isolated from spinach chloroplasts. It is filed as biochemical. The note with it: Table 1, obtained in the same manner as FIG. 4; read-out: Inhibitory effect on MGDG synthesis in isolated spinach chloroplast envelope membranes. The text has this:
All the operations have been carried out as described in the article by Maréchal, E. et al., J. Biol. Chem., 1995, 270, 5714-5722. Crude chloroplasts were obtained from 3-4 kg of spinach leaves and purified by isopycnic centrifugation using Percoll gradients. Purified intact chloroplasts have then been lysed in hypotonic medium and envelope membranes purified from the lysate by sucrose centrifugation gradient as described in the article by Douce, R. and Joyard, J., (1982) in Methods in Chloroplast Molecular Biology (Edelman, M., Hallick R and Chua N H eds), pp 239-256, Elsevier Science Publishers B.V. Amsterdam.
MGDG synthase activity was assayed as described in the article by Maréchal et al. (1995).
For `O=C(OCCCN(Cc1ccccc1)Cc1cccc(Cl)c1)N1CCC(n2c(=O)[nH]c3ccccc32)CC1` [Compound 69, 3-(benzyl(3-chlorobenzyl)amino)propyl 4-(2-oxo-2,3-dihydro-1H-benzo[d]imidazol-1-yl)piperidine-1-carboxylate hydrochloride], the IC50 was 30 µM.

Consider `O=C(OCCN(Cc1ccccc1)Cc1ccc(Br)cc1)N1CCC(n2c(=O)[nH]c3ccccc32)CC1` [Compound 40, 2-(benzyl(4-bromobenzyl)amino)ethyl 4-(2-oxo-2,3-dihydro-1H-benzo[d]imidazol-1-yl)piperidine-1-carboxylate hydrochloride], for which the IC50 came to 15 µM. For the compound `Cn1c(=O)n(C2CCN(C(=O)OC[C@H](Cc3ccccc3)N(Cc3ccccc3)Cc3ccccc3)CC2)c2ccccc21` [Compound 22, (S)-2-(dibenzylamino)-3-phenylpropyl 4-(1,2-dihydro-1-methyl-2-oxobenzo[d]imidazol-3-yl)piperidine-1-carboxylate], the IC50 worked out at 75 µM.

On to `O=C(OCCCN(Cc1ccccc1)Cc1cccc(Oc2ccccc2)c1)N1CCC(n2c(=O)[nH]c3ccccc32)CC1` [Compound 73, 3-(benzyl(3-phenoxybenzyl)amino)propyl 4-(2-oxo-2,3-dihydro-1H-benzo[d]imidazol-1-yl)piperidine-1-carboxylate hydrochloride], for which the IC50 turned out to be 15 µM.

As to `O=C(OCCCN(Cc1ccccc1)Cc1cccnc1)N1CCC(n2c(=O)[nH]c3ccccc32)CC1` [Compound 58, 3-(benzyl(pyridin-3-ylmethyl)amino)propyl 4-(2-oxo-2,3-dihydro-1H-benzo[d]imidazol-1-yl)piperidine-1-carboxylate hydrochloride], the IC50 is 17 µM. `O=C(OCCCN(Cc1ccccc1)Cc1ccc(F)cc1)N1CCC(n2c(=O)[nH]c3ccccc32)CC1` [Compound 67, 3-(benzyl(4-fluorobenzyl)amino)propyl 4-(2-oxo-2,3-dihydro-1H-benzo[d]imidazol-1-yl)piperidine-1-carboxylate hydrochloride]: the IC50 was determined as 12 µM. Consider `O=C(OCCN(Cc1ccccc1)Cc1ccc([N+](=O)[O-])cc1)N1CCC(n2c(=O)[nH]c3ccccc32)CC1` [Compound 28, 2-(N-(4-nitrobenzyl)-N-benzylamino)ethyl 4-(1,2-dihydro-2-oxobenzo[d]imidazol-3-yl)piperidine-1-carboxylate], for which the IC50 was determined as 20 µM. `O=C(OC[C@H](c1ccccc1)N(Cc1ccccc1)Cc1ccccc1)N1CCC(n2c(=O)[nH]c3ccccc32)CC1` [Compound 34, (S)-2-(dibenzylamino)-2-phenylethyl 4-(1,2-dihydro-2-oxobenzo[d]imidazol-3-yl)piperidine-1-carboxylate]: the IC50 is 40 µM. For `O=C(OCCN(Cc1ccccc1)Cc1ccc(Cl)cc1)N1CCC(n2c(=O)[nH]c3ccccc32)CC1` [Compound 74, 2-(benzyl(4-chlorobenzyl)amino)ethyl 4-(2-oxo-2,3-dihydro-1H-benzo[d]imidazol-1-yl)piperidine-1-carboxylate], the IC50 came to 8 µM.

`O=C(OC[C@@H](Cc1ccccc1)N(Cc1ccccc1)Cc1ccccc1)N1CCC(n2c(=O)[nH]c3ccccc32)CC1` [Compound 43, (R)-2-(dibenzylamino)-3-phenylpropyl 4-(1,2-dihydro-2-oxobenzo[d]imidazol-3-yl)piperidine-1-carboxylate]: the IC50 worked out at 6 µM. For `O=C(OCC(c1ccccc1)c1ccccc1)N1CCC(n2c(=O)[nH]c3ccccc32)CC1` [Compound 18, 2,2-diphenylethyl 4-(1,2-dihydro-2-oxobenzo[d]imidazol-3-yl)piperidine-1-carboxylate] the value was 50 µM. Consider `CCN(CCOC(=O)N1CCC(n2c(=O)[nH]c3ccccc32)CC1)c1ccccc1` [Compound 17, 2-(ethyl(phenyl)amino)ethyl 4-(2-oxo-2,3-dihydro-1H-benzo[d]imidazol-1-yl)piperidine-1-carboxylate], for which the IC50 was determined as 200 µM. On to `CC(C)(C)OC(=O)N(Cc1ccccc1)[C@H](COC(=O)N1CCC(n2c(=O)[nH]c3ccccc32)CC1)Cc1ccccc1` [Compound 86, (S)-2-(benzyl(tert-butoxycarbonyl)amino)-3-phenylpropyl 4-(2-oxo-2,3-dihydro-1H-benzo[d]imidazol-1-yl)piperidine-1-carboxylate], for which the IC50 amounted to 5 µM.

On to `CC(C)C[C@@H](COC(=O)N1CCC(n2c(=O)[nH]c3ccccc32)CC1)N(Cc1ccccc1)Cc1ccccc1` [Compound 30, (S)-2-(dibenzylamino)-4-methylpentyl 4-(2-oxo-2,3-dihydro-1H-benzo[d]imidazol-1-yl)piperidine-1-carboxylate], for which the IC50 came out at 12 µM. Regarding `O=C(OCCN(Cc1ccccc1)Cc1c(F)cccc1F)N1CCC(n2c(=O)[nH]c3ccccc32)CC1` [Compound 78, 2-(benzyl(2,6-difluorobenzyl)amino)ethyl 4-(2-oxo-2,3-dihydro-1H-benzo[d]imidazol-1-yl)piperidine-1-carboxylate], the IC50 turned out to be 8 µM.

With `C[C@@H](CNC(=S)N1CCC(n2c(=O)[nH]c3ccccc32)CC1)N(Cc1ccccc1)Cc1ccccc1` [Compound 23, N—((S)-2-(dibenzylamino)propyl)-4-(1,2-dihydro-2-oxobenzo[d]imidazol-3-yl)piperidine-1-carbothioamide], the IC50 worked out at 50 µM. On to `O=c1[nH]c2ccccc2n1C1CCN(C(=S)OCCN(Cc2ccccc2)Cc2ccccc2)CC1` [Compound 19, O-2-(dibenzylamino)ethyl 4-(1,2-dihydro-2-oxobenzo[d]imidazol-3-yl)piperidine-1-carbothioate], for which the IC50 came to 20 µM.

Take `O=C(OCCC(c1ccccc1)c1ccccc1)N1CCC(n2c(=O)[nH]c3ccccc32)CC1` [Compound 12, 3,3-diphenylpropyl 4-(1,2-dihydro-2-oxobenzo[d]imidazol-3-yl)piperidine-1-carboxylate]: the IC50 turned out to be 45 µM. Turning to `O=C(OCCN(Cc1ccccc1)Cc1cccc(Oc2ccccc2)c1)N1CCC(n2c(=O)[nH]c3ccccc32)CC1` [Compound 49, 2-(benzyl(3-phenoxybenzyl)amino)ethyl 4-(2-oxo-2,3-dihydro-1H-benzo[d]imidazol-1-yl)piperidine-1-carboxylate hydrochloride], the IC50 came out at 8 µM. On to `O=C(OCCN(Cc1ccccc1)Cc1ccnc2ccccc12)N1CCC(n2c(=O)[nH]c3ccccc32)CC1` [Compound 57, 2-(benzyl(quinolin-4-ylmethyl)amino)ethyl 4-(2-oxo-2,3-dihydro-1H-benzo[d]imidazol-1-yl)piperidine-1-carboxylate hydrochloride], for which the IC50 worked out at 75 µM.

As to `C[C@@H](COC(=O)N1CCC(n2c(=O)[nH]c3ccccc32)CC1)N(Cc1ccccc1)Cc1cccc(Cl)c1` [Compound 56, (S)-2-(benzyl(3-chlorobenzyl)amino)propyl 4-(2-oxo-2,3-dihydro-1H-benzo[d]imidazol-1-yl)piperidine-1-carboxylate hydrochloride], the IC50 was 15 µM.

Consider `C[C@@H](COC(=O)N1CCCC(n2c(=O)[nH]c3ccccc32)CC1)N(Cc1ccccc1)Cc1ccccc1` (stereo partly drawn) [Compound 4, (S)-2-(dibenzylamino)propyl 4-(1,2-dihydro-2-oxobenzo[d]imidazol-3-yl)azepane-1-carboxylate], for which the IC50 was determined as 200 µM. Turning to `C[C@@H](COC(=O)N1CCC(n2c(=O)n(C(=O)c3ccccc3)c3ccccc32)CC1)N(Cc1ccccc1)Cc1ccccc1` [Compound 21, (S)-2-(dibenzylamino)propyl 4-(1,2-dihydro-2-oxo-1-(benzoyl)benzo[d]imidazol-3-yl)piperidine-1-carboxylate], the IC50 turned out to be 50 µM. With `C[C@@H](COC(=O)Nc1ccc(-n2c(=O)[nH]c3ccccc32)cc1)N(Cc1ccccc1)Cc1ccccc1` [Compound 27, 2-(dibenzylamino)propyl 4-(1,2-dihydro-2-oxobenzo[d]imidazol-3-yl)phenylcarbamate], the IC50 worked out at 45 µM.

As to `CC(C)(C)OC(=O)N(CCOC(=O)N1CCC(n2c(=O)[nH]c3ccccc32)CC1)Cc1ccccc1` [Compound 65, 2-(benzyl(tert-butoxycarbonyl)amino)ethyl 4-(2-oxo-2,3-dihydro-1H-benzo[d]imidazol-1-yl)piperidine-1-carboxylate], the IC50 is 12 µM.

As to `O=C(OCCCN(Cc1ccccc1)Cc1ccccc1)N1CCC(n2c(=O)[nH]c3ccccc32)CC1` [Compound 10, 3-(dibenzylamino)propyl 4-(1,2-dihydro-2-oxobenzo[d]imidazol-3-yl)piperidine-1-carboxylate], the IC50 stood at 45 µM. For `O=C(OCCN(Cc1ccccc1)Cc1cccc(OCc2ccccc2)c1)N1CCC(n2c(=O)[nH]c3ccccc32)CC1` [Compound 81, 2-(benzyl(3-(benzyloxy)benzyl)amino)ethyl 4-(2-oxo-2,3-dihydro-1H-benzo[d]imidazol-1-yl)piperidine-1-carboxylate] the value was 8 µM.
